Our source for the IC50 values is patent US11377469B2, “CD73 inhibitors” (ORIC Pharmaceuticals, Inc., priority 2017, dated 2022).

The target of the test is CD73 (Homo sapiens (Human), UniProt P21589). The test is described as follows: Biochemical Assay (CD73 inhibition, AMP hydrolysis, Malachite Green readout). To be noted: CD73 0.3208 nM, AMP 15 μM, Tris-HCl pH 7.4, Malachite Green absorbance. As for the experimental part: Example A1: Biochemical Assay
Sequence of CD73 (P21589 27-574): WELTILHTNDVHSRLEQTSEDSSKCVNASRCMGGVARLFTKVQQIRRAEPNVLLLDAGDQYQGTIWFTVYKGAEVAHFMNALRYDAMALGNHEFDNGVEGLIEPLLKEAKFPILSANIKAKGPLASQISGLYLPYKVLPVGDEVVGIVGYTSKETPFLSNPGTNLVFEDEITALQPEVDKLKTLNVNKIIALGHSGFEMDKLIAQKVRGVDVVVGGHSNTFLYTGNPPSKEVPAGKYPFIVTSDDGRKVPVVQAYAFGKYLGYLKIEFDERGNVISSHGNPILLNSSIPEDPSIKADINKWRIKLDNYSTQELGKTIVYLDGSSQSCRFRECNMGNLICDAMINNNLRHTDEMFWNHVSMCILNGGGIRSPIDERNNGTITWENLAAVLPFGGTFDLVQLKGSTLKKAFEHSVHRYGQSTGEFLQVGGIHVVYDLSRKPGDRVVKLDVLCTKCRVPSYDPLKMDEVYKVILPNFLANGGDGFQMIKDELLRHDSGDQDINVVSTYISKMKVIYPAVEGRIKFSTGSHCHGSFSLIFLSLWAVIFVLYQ
Assay Reaction Conditions
• Assay Volume: 70 μl • Reaction Volume: 50 μl • CD73: 0.3208 nM • AMP: 15 μM • Assay Buffer: 2 5 mM Tris-HCL, pH 7.4, 0.01% Brij-35, 0.01% BSA, 5 mM MgCl2 Assay Procedure:
Made dose titration of testing compounds in assay buffer, 10 points ½ log titrations in duplicates starting at 100 μM.
Added 25 μl of CD73 to each well for a final concentration of 320 pM.
Incubated at RT for 15 min.
Added 25 μl of AMP to each well for a final concentration of 15 μM.
Incubated at RT for 10 min.
Added 10 μl of Malachite Green Reagent A, incubate at RT for 10 min.
Added 10 μl of Malachite Green Reagent B, incubate at RT for 45 min. […]
The ability of the compounds disclosed herein to inhibit CD73 activity was quantified and the respective IC50 values were determined. Table 1 provides the biochemical IC50 values of compounds disclosed herein.
As usually defined, the IC50 is the midpoint of a concentration-inhibition curve. Low readings indicate greater potency in that assay, high ones weaker potency in that assay. The molecule `O=P(O)(O)CS(=O)(=O)C[C@H]1O[C@@H](n2nnc3c(NC4Cc5ccccc5C4)nc(Cl)nc32)[C@H](O)[C@@H]1O` [Example 121, (((((2S,3S,4R,5R)-5-(5-chloro-7-((2,3-dihydro-1H-inden-2-yl)amino)-3H-[1,2,3]triazolo[4,5-d]pyrimidin-3-yl)-3,4-dihydroxytetrahydrofuran-2-yl)methyl)sulfonyl)methyl)phosphonic acid] returned a concentration for half-maximal inhibition (IC50) of at most 500 nM.
In the case of `O=P(O)(O)CS(=O)(=O)C[C@H]1O[C@@H](n2nnc3c(NCc4ccc(Cl)cc4)nc(Cl)nc32)[C@H](O)[C@@H]1O` [Example 120, (((((2S,3S,4R,5R)-5-(5-chloro-7-((4-chlorobenzyl)amino)-3H[1,2,3]triazolo[4,5-d]pyrimidin-3-yl)-3,4-dihydroxytetrahydrofuran-2-yl)methyl)sulfonyl)methyl)phosphonic acid] it was at most 500 nM; in that of `C[C@@H]1CCC[C@@H]1Nc1nc(Cl)nc2c1cnn2[C@@H]1O[C@H](CS(=O)(=O)CP(=O)(O)O)[C@@H](O)[C@H]1O` [Example 135, (((((2S,3S,4R,5R)-5-(6-chloro-4-(((1S,2R)-2-methylcyclopentyl)amino)-1H-pyrazolo[3,4-d]pyrimidin-1-yl)-3,4-dihydroxytetrahydrofuran-2-yl)methyl)sulfonyl)methyl)phosphonic acid], at most 500 nM.
In the case of `O=P(O)(O)COC[C@H]1O[C@@H](n2ncc3c(OCc4cccc(Cl)c4)nc(Cl)nc32)[C@H](O)[C@@H]1O` [Example 65, ((((2R,3S,4R,5R)-5-(6-chloro-4-((3-chlorobenzyl)oxy)-1H-pyrazolo[3,4-d]pyrimidin-1-yl)-3,4-dihydroxytetrahydrofuran-2-yl)methoxy)methyl)phosphonic acid] it was above 1000 nM; in that of `COCCN(c1nc(Cl)nc2c1cnn2[C@@H]1O[C@H](CS(=O)(=O)CP(=O)(O)O)[C@@H](O)[C@H]1O)C1CCCC1` [Example 133], at most 500 nM.
The molecule `O=P(O)(O)COC[C@H]1O[C@@H](n2ncc3c(N[C@H]4CCc5ccccc54)nc(Cl)nc32)[C@H](O)[C@@H]1O` [Example 25, ((((2R,3S,4R,5R)-5-(6-chloro-4-(((S)-2,3-dihydro-1H-inden-1-yl)amino)-1H-pyrazolo[3,4-d]pyrimidin-1-yl)-3,4-dihydroxytetrahydrofuran-2-yl)methoxy)methyl)phosphonic acid] displayed an IC50 of at most 500 nM.
In the case of `CC(C)COc1nc(NCc2cccc(Cl)c2)c2cnn([C@@H]3O[C@H](COCP(=O)(O)O)[C@@H](O)[C@H]3O)c2n1` [Example 54, ((((2R,3S,4R,5R)-5-(4-((3-chlorobenzyl)amino)-6-isobutoxy-1H-pyrazolo[3,4-d]pyrimidin-1-yl)-3,4-dihydroxytetrahydrofuran-2-yl)methoxy)methyl)phosphonic acid] it was above 1000 nM.
The figure for `CC(=O)N(c1nc(Cl)nc2c1cnn2[C@@H]1O[C@H](COCP(=O)(O)O)[C@@H](O)[C@H]1O)C1CCCC1` [Example 99, ((((2R,3S,4R,5R)-5-(6-Chloro-4-(N-cyclopentylacetamido)-1H-pyrazolo[3,4-d]pyrimidin-1-yl)-3,4-dihydroxytetrahydrofuran-2-yl)methoxy)methyl)phosphonic acid] is at most 500 nM; for `C[C@@H](Nc1nc(Cl)nc2c1cnn2[C@@H]1O[C@H](COCP(=O)(O)O)[C@@H](O)[C@H]1O)C1CC1` [Example 92, ((((2R,3S,4R,5R)-5-(6-chloro-4-(((R)-1-cyclopropylethyl)amino)-1H-pyrazolo[3,4-d]pyrimidin-1-yl)-3,4-dihydroxytetrahydrofuran-2-yl)methoxy)methyl)phosphonic acid] it is at most 500 nM; for `O=P(O)(O)CS(=O)(=O)CC[C@H]1O[C@@H](n2ncc3c(NCC4CC4)nc(Cl)nc32)[C@H](O)[C@@H]1O` [Example 88, (((2-((2R,3S,4R,5R)-5-(6-chloro-4-((cyclopropylmethy)amino)-1H-pyrazolo[3,4-d]pyrimidin-1-yl)-3,4-dihydroxytetrahydrofuran-2-yl)ethyl)sulfonyl)methyl)phosphonic acid] it is above 1000 nM.
In the case of `O=P(O)(O)COC[C@H]1O[C@@H](n2ncc3c(NC4CCC4)nc(Cl)nc32)[C@H](O)[C@@H]1O` [Example 79, ((((2R,3S,4R,5R)-5-(6-chloro-4-(cyclobutylamino)-1H-pyrazolo[3,4-d]pyrimidin-1-yl)-3,4-dihydroxytetrahydrofuran-2-yl)methoxy)methyl)phosphonic acid] it was at most 500 nM; in that of `O=P(O)(O)COC[C@H]1O[C@@H](n2ncc3c(N[C@@H]4CCOC4)nc(Cl)nc32)[C@H](O)[C@@H]1O` [Example 80, ((((2R,3S,4R,5R)-5-(6-chloro-4-(((R)-tetrahydrofuran-3-yl)amino)-1H-pyrazolo[3,4-d]pyrimidin-1-yl)-3,4-dihydroxytetrahydrofuran-2-yl)methoxy)methyl)phosphonic acid], at most 500 nM.
`O=P(O)(O)COC[C@H]1O[C@@H](n2ncc3c(NC[C@@H]4CCCO4)nc(Cl)nc32)[C@H](O)[C@@H]1O` [Example 69, ((((2R,3S,4R,5R)-5-(6-chloro-4-((((S)-tetrahydrofuran-2-yl)methyl)amino)-1H-pyrazolo[3,4-d]pyrimidin-1-yl)-3,4-dihydroxytetrahydrofuran-2-yl)methoxy)methyl)phosphonic acid] gave an IC50 of at most 500 nM.
The figure for `CN(c1nc(Cl)nc2c1nnn2[C@@H]1O[C@H](COC(=O)CP(=O)(O)O)[C@@H](O)[C@H]1O)[C@H]1CCc2ccccc21` [Example 11, (2-(((2R,3S,4R,5R)-5-(5-chloro-7-(((S)-2,3-dihydro-1H-inden-1-yl)(methyl)amino)-3H-[1,2,3]triazolo[4,5-d]pyrimidin-3-yl)-3,4-dihydroxytetrahydrofuran-2-yl)methoxy)-2-oxoethyl)phosphonic acid] is above 1000 nM; for `CN(Cc1cccc(Cl)c1)c1nc(Cl)nc2c1cnn2[C@@H]1O[C@H](COCP(=O)(O)O)[C@@H](O)[C@H]1O` [Example 37, ((((2R,3S,4R,5R)-5-(6-chloro-4-((3-chlorobenzyl)(methyl)amino)-1H-pyrazolo[3,4-d]pyrimidin-1-yl)-3,4-dihydroxytetrahydrofuran-2-yl)methoxy)methyl)phosphonic acid] it is at most 500 nM; for `O=P(O)(O)CS(=O)(=O)C[C@H]1O[C@@H](n2nnc3c(NCC4CCC4)nc(Cl)nc32)[C@H](O)[C@@H]1O` [Example 113, (((((2S,3S,4R,5R)-5-(5-chloro-7-((cyclobutylmethyl)amino)-3H-[1,2,3]triazolo[4,5-d]pyrimidin-3-yl)-3,4-dihydroxytetrahydrofuran-2-yl)methyl)sulfonyl)methyl)phosphonic acid] it is at most 500 nM.
Consider `O=P(O)(O)COC[C@H]1O[C@@H](n2ncc3c(N4CCOCC4)nc(Cl)nc32)[C@H](O)[C@@H]1O` [Example 42, ((((2R,3S,4R,5R)-5-(6-chloro-4-morpholino-1H-pyrazolo[3,4-d]pyrimidin-1-yl)-3,4-dihydroxytetrahydrofuran-2-yl)methoxy)methyl)phosphonic acid], for which the IC50 is at most 500 nM.
`CN(Cc1ccccc1)c1nc(Cl)nc2c1cnn2[C@@H]1O[C@H](COCP(=O)(O)O)[C@@H](O)[C@H]1O` [Example 7, ((((2R,3S,4R,5R)-5-(4-(Benzyl(methyl)amino)-6-chloro-1H-pyrazolo[3,4-d]pyrimidin-1-yl)-3,4-dihydroxytetrahydrofuran-2-yl)methoxy)methyl)phosphonic acid] returned an IC50 of at most 500 nM.
In the case of `O=P(O)(O)COC[C@H]1O[C@@H](n2ncc3c(NC4CC4)nc(Cl)nc32)[C@H](O)[C@@H]1O` [Example 76, ((((2R,3S,4R,5R)-5-(6-chloro-4-(cyclopropylamino)-1H-pyrazolo[3,4-d]pyrimidin-1-yl)-3,4-dihydroxytetrahydrofuran-2-yl)methoxy)methyl)phosphonic acid] it was at most 500 nM; in that of `CNc1nc(NCc2cccc(Cl)c2)c2cnn([C@@H]3O[C@H](COCP(=O)(O)O)[C@@H](O)[C@H]3O)c2n1` [Example 56, ((((2R,3S,4R,5R)-5-(4-((3-chlorobenzyl)amino)-6-(methylamino)-1H-pyrazolo[3,4-d]pyrimidin-1-yl)-3,4-dihydroxytetrahydrofuran-2-yl)methoxy)methyl)phosphonic acid], above 1000 nM; in that of `O=P(O)(O)CS(=O)(=O)C[C@H]1O[C@@H](n2ncc3c(N[C@H]4CCc5ccccc54)nc(Cl)nc32)[C@H](O)[C@@H]1O` [Example 123, (((((2S,3S,4R,5R)-5-(6-chloro-4-(((S)-2,3-dihydro-1H-inden-1-yl)amino)-1H-pyrazolo[3,4-d]pyrimidin-1-yl)-3,4-dihydroxytetrahydrofuran-2-yl)methyl)sulfonyl)methyl)phosphonic acid], at most 500 nM.
In the case of `CN(c1nc(Cl)nc2c1cnn2[C@@H]1O[C@H](COCP(=O)(O)O)[C@@H](O)[C@H]1O)[C@H]1CCc2ccccc21` [Example 31, ((((2R,3S,4R,5R)-5-(6-chloro-4-(((S)-2,3-dihydro-1H-inden-1-yl)(methyl)amino)-1H-pyrazolo[3,4-d]pyrimidin-1-yl)-3,4-dihydroxytetrahydrofuran-2-yl)methoxy)methyl)phosphonic acid] it was at most 500 nM.
The figure for `CC(C)Nc1nc(Cl)nc2c1cnn2[C@@H]1O[C@H](COCP(=O)(O)O)[C@@H](O)[C@H]1O` [Example 74, ((((2R,3S,4R,5R)-5-(6-chloro-4-(isopropylamino)-1H-pyrazolo[3,4-d]pyrimidin-1-yl)-3,4-dihydroxytetrahydrofuran-2-yl)methoxy)methyl)phosphonic acid] is at most 500 nM.
